Experimental data published in patent publication US11739098B2 (BRISTOL-MYERS SQUIBB COMPANY, priority 2017, dated 2023).

Tests used:
Format in all cases: cell-based
human TLR8 = biological target: T1, human TLR8 (Homo sapiens, UniProt Q9NR97); assay: TLR8 inhibition reporter assay (HEK-Blue cells, SEAP reporter, R848 stimulation); details: HEK-Blue cells overexpressing human TLR8, SEAP reporter, R848 15.9 μM
T1 construct: host or cells: HEK-Blue cells (HEK293-derived reporter line)
T1 sequence (Q9NR97 27-1041): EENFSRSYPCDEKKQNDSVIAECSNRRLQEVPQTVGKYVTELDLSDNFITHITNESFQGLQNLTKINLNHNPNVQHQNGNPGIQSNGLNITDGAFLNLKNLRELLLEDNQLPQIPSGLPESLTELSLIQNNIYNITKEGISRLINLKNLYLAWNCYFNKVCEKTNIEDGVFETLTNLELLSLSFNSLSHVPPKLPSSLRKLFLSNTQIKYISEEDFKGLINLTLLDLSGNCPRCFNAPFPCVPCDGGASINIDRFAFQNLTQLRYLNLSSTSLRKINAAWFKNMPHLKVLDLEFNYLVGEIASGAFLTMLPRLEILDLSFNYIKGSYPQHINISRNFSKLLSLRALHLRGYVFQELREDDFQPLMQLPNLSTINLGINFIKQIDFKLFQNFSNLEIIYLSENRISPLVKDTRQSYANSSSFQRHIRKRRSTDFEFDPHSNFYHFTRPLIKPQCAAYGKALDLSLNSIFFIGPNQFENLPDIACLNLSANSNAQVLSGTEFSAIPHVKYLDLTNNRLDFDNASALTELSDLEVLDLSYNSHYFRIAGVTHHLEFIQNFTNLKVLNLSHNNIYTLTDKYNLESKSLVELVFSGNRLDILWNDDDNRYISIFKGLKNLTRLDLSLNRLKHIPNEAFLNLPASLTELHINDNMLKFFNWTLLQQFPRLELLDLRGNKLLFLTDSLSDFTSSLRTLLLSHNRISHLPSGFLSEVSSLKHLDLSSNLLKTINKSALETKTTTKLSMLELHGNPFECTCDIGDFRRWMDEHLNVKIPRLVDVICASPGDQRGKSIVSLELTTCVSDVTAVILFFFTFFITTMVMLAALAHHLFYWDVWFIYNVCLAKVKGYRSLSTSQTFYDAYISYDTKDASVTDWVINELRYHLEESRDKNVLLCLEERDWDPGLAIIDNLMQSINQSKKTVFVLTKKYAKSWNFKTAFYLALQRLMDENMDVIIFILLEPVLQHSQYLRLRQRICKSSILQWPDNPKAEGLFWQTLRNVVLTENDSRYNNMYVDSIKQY
How it was run: (§1)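 HEK-Blue cells overexpressing the receptor, with NF-κB/AP-1-driven SEAP, were pre-treated 30 min at room temperature with compound (0.05 nM–50 μM), then stimulated with gardiquimod 7.5 μM (TLR7), R848 15.9 μM (TLR8) or ODN2006 5 nM (TLR9). SEAP was read after 22 h at 37 °C as percent inhibition.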

human TLR9 = biological target: T2, human TLR9 (Homo sapiens, UniProt Q9NR96); assay: TLR9 inhibition reporter assay (HEK-Blue cells, SEAP reporter, ODN2006 stimulation); details: HEK-Blue cells overexpressing human TLR9, SEAP reporter, ODN2006 5 nM
T2 construct: host or cells: HEK-Blue cells (HEK293-derived reporter line)
T2 sequence (Q9NR96 26-1032): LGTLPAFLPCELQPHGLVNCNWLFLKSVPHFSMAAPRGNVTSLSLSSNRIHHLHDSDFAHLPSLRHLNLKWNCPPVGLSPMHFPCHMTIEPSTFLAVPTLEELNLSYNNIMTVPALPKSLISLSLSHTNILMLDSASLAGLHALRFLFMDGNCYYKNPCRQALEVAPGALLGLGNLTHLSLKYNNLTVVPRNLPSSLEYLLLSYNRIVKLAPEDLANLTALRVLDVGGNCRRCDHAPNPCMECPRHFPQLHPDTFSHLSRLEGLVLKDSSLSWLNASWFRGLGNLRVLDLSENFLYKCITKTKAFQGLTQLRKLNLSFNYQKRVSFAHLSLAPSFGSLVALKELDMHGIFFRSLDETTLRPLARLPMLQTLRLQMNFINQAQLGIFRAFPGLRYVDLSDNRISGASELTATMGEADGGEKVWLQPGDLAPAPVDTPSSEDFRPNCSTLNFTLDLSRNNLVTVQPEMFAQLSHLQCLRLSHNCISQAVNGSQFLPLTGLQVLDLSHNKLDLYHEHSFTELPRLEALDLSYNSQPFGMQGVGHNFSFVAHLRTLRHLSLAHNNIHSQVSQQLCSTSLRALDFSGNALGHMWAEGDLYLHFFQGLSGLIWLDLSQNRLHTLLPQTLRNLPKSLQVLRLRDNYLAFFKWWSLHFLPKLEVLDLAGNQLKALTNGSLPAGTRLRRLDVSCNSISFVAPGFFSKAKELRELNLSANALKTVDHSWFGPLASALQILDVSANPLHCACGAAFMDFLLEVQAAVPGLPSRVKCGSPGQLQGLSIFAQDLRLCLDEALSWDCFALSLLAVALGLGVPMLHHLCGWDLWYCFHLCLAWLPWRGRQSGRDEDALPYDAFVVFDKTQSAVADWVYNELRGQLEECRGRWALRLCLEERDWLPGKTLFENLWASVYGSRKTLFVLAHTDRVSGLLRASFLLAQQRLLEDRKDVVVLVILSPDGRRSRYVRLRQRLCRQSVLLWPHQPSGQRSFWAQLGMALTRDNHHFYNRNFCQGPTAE
How it was run: as §1

human TLR7 = biological target: T3, human TLR7 (Homo sapiens, UniProt Q9NYK1); assay: TLR7 inhibition reporter assay (HEK-Blue cells, SEAP reporter, gardiquimod stimulation); details: HEK-Blue cells overexpressing human TLR7, SEAP reporter, gardiquimod 7.5 μM
T3 construct: host or cells: HEK-Blue cells (HEK293-derived reporter line)
T3 sequence (Q9NYK1 27-1049): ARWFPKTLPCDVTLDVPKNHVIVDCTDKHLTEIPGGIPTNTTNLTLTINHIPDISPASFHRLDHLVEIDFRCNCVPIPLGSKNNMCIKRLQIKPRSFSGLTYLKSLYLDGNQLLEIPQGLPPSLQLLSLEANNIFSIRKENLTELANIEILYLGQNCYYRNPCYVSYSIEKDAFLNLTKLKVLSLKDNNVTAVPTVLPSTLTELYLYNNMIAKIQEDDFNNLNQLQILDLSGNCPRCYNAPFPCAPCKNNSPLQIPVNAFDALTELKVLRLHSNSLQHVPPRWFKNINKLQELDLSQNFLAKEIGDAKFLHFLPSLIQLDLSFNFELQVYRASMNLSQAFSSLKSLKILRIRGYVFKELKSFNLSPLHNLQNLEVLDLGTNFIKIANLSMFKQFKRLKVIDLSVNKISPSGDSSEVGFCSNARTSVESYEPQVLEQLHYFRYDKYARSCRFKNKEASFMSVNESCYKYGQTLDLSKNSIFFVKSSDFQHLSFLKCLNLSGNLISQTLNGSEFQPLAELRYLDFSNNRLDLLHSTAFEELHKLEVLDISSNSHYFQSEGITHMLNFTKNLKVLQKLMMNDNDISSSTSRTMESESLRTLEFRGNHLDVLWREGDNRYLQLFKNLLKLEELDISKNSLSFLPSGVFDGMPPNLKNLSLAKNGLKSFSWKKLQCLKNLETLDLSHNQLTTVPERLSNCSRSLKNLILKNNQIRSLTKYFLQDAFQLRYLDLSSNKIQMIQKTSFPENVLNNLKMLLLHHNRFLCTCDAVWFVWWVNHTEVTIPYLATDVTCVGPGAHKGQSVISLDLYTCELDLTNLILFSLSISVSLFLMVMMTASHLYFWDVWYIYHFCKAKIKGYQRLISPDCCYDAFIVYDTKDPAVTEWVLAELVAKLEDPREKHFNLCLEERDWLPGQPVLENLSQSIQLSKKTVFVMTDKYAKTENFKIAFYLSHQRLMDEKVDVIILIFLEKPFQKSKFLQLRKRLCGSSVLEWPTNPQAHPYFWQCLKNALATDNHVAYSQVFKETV
How it was run: as §1

| IC50 (human TLR8) | IC50 (human TLR9) | IC50 (human TLR7) | SMILES |
| --- | --- | --- | --- |
| 0.1 to 1 µM | 0.1 to 1 µM | 0.1 to 1 µM | COc1cc(-c2[nH]c3ccc(C4CCN(CC(=O)N(C)C)CC4)cc3c2C(C)C)cc2nccn12 [Example 357, 2-(4-(3-isopropyl-2-(5-methoxyimidazo[1,2-a]pyridin-7-yl)-1H-indol-5-yl)piperidin-1-yl)-N,N-dimethylacetamide] |
| 1 to 50 µM | 1 to 50 µM | 0.1 to 1 µM | CC(C)c1c(-c2ccc3[nH]ncc3c2)[nH]c2ccc(C3CCNCC3)cc12 [Example 169, 5-(3-isopropyl-5-(piperidin-4-yl)-1H-indol-2-yl)-1H-indazole] |
| 1 to 50 µM | 1 to 50 µM | < 0.1 µM | Cc1cc2cc(-c3[nH]c4ccc(C5CCNCC5)cc4c3C(C)C)ccn2n1 [Example 145, 5-(3-isopropyl-5-(piperidin-4-yl)-1H-indol-2-yl)-2-methylpyrazolo[1,5-a]pyridine] |
| < 0.1 µM | 0.1 to 1 µM | < 0.1 µM | Cc1cc(-c2[nH]c3ccc(C4CCN(CC#N)CC4)cc3c2C(C)C)cn2nnnc12 [Example 961, 2-(4-(3-isopropyl-2-(8-methyltetrazolo[1,5-a]pyridin-6-yl)-1H-indol-5-yl)piperidin-1-yl)acetonitrile] |
| 0.1 to 1 µM | 1 to 50 µM | 1 to 50 µM | Cc1cc(-c2[nH]c3ccc(C4CCN(Cc5ccn(C)n5)CC4)cc3c2C(C)C)cn2nncc12 [Example 882, 6-(3-isopropyl-5-(1-((1-methyl-1H-pyrazol-3-yl)methyl)piperidin-4-yl)-1H-indol-2-yl)-4-methyl-[1,2,3]triazolo[1,5-a]pyridine] |
| < 0.1 µM | 1 to 50 µM | < 0.1 µM | Cc1nnn2ccc(-c3[nH]c4ccc(C5CCN(CCS(C)(=O)=O)CC5)cc4c3C(C)C)cc12 [Example 793, 5-(3-isopropyl-5-(1-(2-(methylsulfonyl)ethyl)piperidin-4-yl)-1H-indol-2-yl)-3-methyl-[1,2,3]triazolo[1,5-a]pyridine] |

More lines, now with the values behind:

| SMILES | IC50 (human TLR8) | IC50 (human TLR9) | IC50 (human TLR7) |
| --- | --- | --- | --- |
| CC(C)c1c(-c2ccnc3[nH]ncc23)[nH]c2ccc(C3CCN(Cc4csc(N)n4)CC3)cc12 [Example 925, 4-((4-(3-isopropyl-2-(1H-pyrazolo[3,4-b]pyridin-4-yl)-1H-indol-5-yl)piperidin-1-yl)methyl)thiazol-2-amine] | < 0.1 µM | 1 to 50 µM | < 0.1 µM |
| CC(C)c1c(-c2cnc3ncnn3c2)[nH]c2ccc(C3CCN(CC(C)(C)O)CC3)cc12 [Example 773, 1-(4-(2-([1,2,4]triazolo[1,5-a]pyrimidin-6-yl)-3-isopropyl-1H-indol-5-yl)piperidin-1-yl)-2-methylpropan-2-ol] | < 0.1 µM | 1 to 50 µM | 0.1 to 1 µM |
| CCc1c(-c2ccn3cnnc3c2)[nH]c2ccc(C3CCNCC3)cc12 [Example 204, 7-(3-ethyl-5-(piperidin-4-yl)-1H-indol-2-yl)-[1,2,4]triazolo[4,3-a]pyridine] | 0.1 to 1 µM | 0.1 to 1 µM | 0.1 to 1 µM |
| CC(C)c1c(-c2ccc3nnnn3c2)[nH]c2ccc(C3CCNCC3)cc12 [Example 80, 6-(3-isopropyl-5-(piperidin-4-yl)-1H-indol-2-yl)tetrazolo[1,5-a]pyridine] | 0.1 to 1 µM | 1 to 50 µM | < 0.1 µM |
| CC(C)c1c(-c2cc(Cl)cc3nccn23)[nH]c2ccc(C3CCNCC3)cc12 [Example 127, 7-chloro-5-(3-isopropyl-5-(piperidin-4-yl)-1H-indol-2-yl)imidazo[1,2-a]pyridine] | < 0.1 µM | 0.1 to 1 µM | < 0.1 µM |
| CCc1c(-c2cnc3[nH]c(=O)[nH]c3c2)[nH]c2ccc(C3CCNCC3)cc12 [Example 180, 6-(3-ethyl-5-(piperidin-4-yl)-1H-indol-2-yl)-1,3-dihydro-2H-imidazo[4,5-b]pyridin-2-one] | 1 to 50 µM | 1 to 50 µM | 1 to 50 µM |
| CNC(=O)CN1CCC(c2ccc3[nH]c(-c4nn5ncnc5c(C)c4C)c(C(C)C)c3c2)CC1 [Example 279, 2-(4-(2-(7,8-dimethyl-[1,2,4]triazolo[1,5-b]pyridazin-6-yl)-3-isopropyl-1H-indol-5-yl)piperidin-1-yl)-N-methylacetamide] | < 0.1 µM | 1 to 50 µM | < 0.1 µM |
| Cc1cn2cc(-c3[nH]c4ccc(C5CCN(C(=O)CN(C)C)CC5)cc4c3CC(F)F)ccc2n1 [Example 551, 1-(4-(3-(2,2-difluoroethyl)-2-(2-methylimidazo[1,2-a]pyridin-6-yl)-1H-indol-5-yl)piperidin-1-yl)-2-(dimethylamino)ethan-1-one] | > 3.13 µM | 0.1 to 1 µM | < 0.1 µM |
| CC(C)c1c(-c2ccnc3[nH]ncc23)[nH]c2ccc(C3CCN(C(=O)CN(C)C)CC3)cc12 [Example 449, 2-(dimethylamino)-1-(4-(3-isopropyl-2-(1H-pyrazolo[3,4-b]pyridin-4-yl)-1H-indol-5-yl)piperidin-1-yl)ethanone] | < 0.1 µM | 1 to 50 µM | < 0.1 µM |
